Laboratory results from ChEMBL document CHEMBL3868600, “Antibacterial profiling of abietane-type diterpenoids” (Bioorg Med Chem, 2017).
In brackets after ≈: the same amount, converted by molar mass.

What was measured:
Candida albicans [1] = assay: Growth inhibition of Candida albicans ATCC 90028 at 50 uM after 48 hrs by broth microdilution method; type: functional; settings: ATCC 90028, 48 h, read-out: GI
Escherichia coli [2] = assay: Growth inhibition of Escherichia coli ATCC 25922 at 50 uM after 24 hrs by broth microdilution method; type: functional; settings: ATCC 25922, 24 h, read-out: GI
Staphylococcus aureus [3] = assay: Growth inhibition of Staphylococcus aureus ATCC 25923 at 50 uM after 24 hrs by broth microdilution method; type: functional; settings: ATCC 25923, 24 h, read-out: GI
Staphylococcus aureus [4] = assay: Antibacterial activity against Staphylococcus aureus ATCC 25923 after 24 hrs by broth microdilution method; type: functional; settings: ATCC 25923, 24 h
Salmonella typhimurium = assay: Antibacterial activity against Salmonella typhimurium ATCC 13311 after 24 hrs by broth microdilution method; type: functional, Salmonella enterica subsp. enterica serovar Typhimurium; settings: Salmonella enterica, ATCC 13311, 24 h
Cutibacterium acnes = assay: Antibacterial activity against Propionibacterium acnes ATCC 6919 after 24 hrs by broth microdilution method; type: functional; settings: ATCC 6919, 24 h
Streptococcus mitis = assay: Antibacterial activity against Streptococcus mitis NCIMB 13770 after 24 hrs by broth microdilution method; type: functional; settings: NCIMB 13770, 24 h
[5] = tested on: Staphylococcus epidermidis; assay: Antibacterial activity against Staphylococcus epidermidis ATCC 12228 after 24 hrs by broth microdilution method; type: functional; settings: ATCC 12228, 24 h
Escherichia coli [6] = assay: Antibacterial activity against Escherichia coli ATCC 25922 after 24 hrs by broth microdilution method; type: functional
Staphylococcus aureus [7] = assay: Antibacterial activity against methicillin-resistant Staphylococcus aureus ATCC 4330 after 24 hrs by broth microdilution method; type: functional; settings: ATCC 4330, 24 h
[8] = Antifungal activity against Cladosporium cladosporioides ATCC 16022 after 48 hrs by broth microdilution method; type: functional
[9] = Antifungal activity against Rhodotorula mucilaginosa ATCC 66034 after 48 hrs by broth microdilution method; type: functional
Candida albicans [10] = assay: Antifungal activity against Candida albicans ATCC 90028 after 48 hrs by broth microdilution method; type: functional; settings: ATCC 90028, 48 h
Staphylococcus aureus [11] = assay: Ratio of MIC90 for Staphylococcus aureus ATCC 25923 to MIC90 for methicillin-resistant Staphylococcus aureus ATCC 4330; type: functional

Row | Compound | inhibition of growth at 50 µM (Candida albicans [1]) [%] | inhibition of growth at 50 µM (Escherichia coli [2]) [%] | inhibition of growth at 50 µM (Staphylococcus aureus [3]) [%] | MIC90 (Salmonella typhimurium) [µg/mL] | MIC90 (Cutibacterium acnes) [µg/mL] | MIC90 (Streptococcus mitis) [µg/mL] | MIC90 [5] [µg/mL] | other results
1 | COC(=O)CNC(=O)[C@]1(C)CCC[C@@]2(C)[C@H]1CC=C1C=C(C(C)C)CC[C@@H]12 | 20 | 8 | 13 |  |  |  |  | 
2 | COC(=O)[C@H](CO)NC(=O)[C@]1(C)CCC[C@]2(C)c3ccc(C(C)C)cc3CC[C@@H]12 |  |  |  |  |  |  |  | IC50 (Staphylococcus aureus [4]): 21 to 30 µg/mL (≈ 52.3 to 74.7 µM); MIC90 (Staphylococcus aureus [4]): > 125 µg/mL
3 | CN(C)[C@@H]1C(O)=C(C(N)=O)C(=O)[C@@]2(O)C(O)=C3C(=O)c4c(O)cccc4[C@@](C)(O)[C@H]3C[C@@H]12 [TETRACYCLINE] |  |  |  | 16 (≈ 36 µM) | 2 (≈ 4.5 µM) | 1 (≈ 2.25 µM) | 1 (≈ 2.25 µM) | 
4 | GENTAMICIN |  |  |  |  |  |  |  | MIC90 (Escherichia coli [6]): 2 µg/mL
5 | O=C(O)c1cn(C2CC2)c2cc(N3CCNCC3)c(F)cc2c1=O [CIPROFLOXACIN] |  |  |  |  |  |  |  | MIC90 (Staphylococcus aureus [4]): 1 µg/mL (≈ 3.02 µM)
6 | CC[C@H](NC(=O)[C@]1(C)CCC[C@@]2(C)[C@H]1CC=C1C=C(C(C)C)CC[C@@H]12)C(=O)OC | 23 | 11 | -12 |  |  |  |  | 
7 | COC(=O)[C@H](CO)NC(=O)[C@]1(C)CCC[C@@]2(C)[C@H]1CC=C1C=C(C(C)C)CC[C@@H]12 | 39 | 9 | 76 | > 125 | > 125 | > 125 | 16 (≈ 39.6 µM) | IC50 (Staphylococcus aureus [4]): 21 to 30 µg/mL (≈ 52 to 74.3 µM); MIC90 (Staphylococcus aureus [4]): 61 µg/mL (≈ 151 µM); MIC90 (Staphylococcus aureus [7]): 62 µg/mL (≈ 154 µM); MIC90 [8]: > 125 µg/mL; MIC90 [9]: 31 µg/mL (≈ 76.8 µM)
8 | NYSTATIN |  |  |  |  |  |  |  | MIC90 [8]: 64 µg/mL; MIC90 [9]: 0.125 µg/mL
9 | COC(=O)[C@H](CC(C)C)NC(=O)[C@]1(C)CCC[C@@]2(C)[C@H]1CC=C1C=C(C(C)C)CC[C@@H]12 | -8 | 6 | -9 |  |  |  |  | 
10 | COC(=O)[C@H](Cc1ccccc1)NC(=O)[C@]1(C)CCC[C@@]2(C)[C@H]1CC=C1C=C(C(C)C)CC[C@@H]12 | -13 | 6 | -1 |  |  |  |  | 
11 | COC(=O)[C@H](CC1CCCCC1)NC(=O)[C@]1(C)CCC[C@@]2(C)[C@H]1CC=C1C=C(C(C)C)CC[C@@H]12 | -35 | 3 | -8 |  |  |  |  | 
12 | C[C@@H]1[C@H](O)[C@@H](C)/C=C/C=C/C=C/C=C/C=C/C=C/C=C/[C@H](O[C@@H]2O[C@H](C)[C@@H](O)[C@H](N)[C@@H]2O)C[C@@H]2O[C@](O)(C[C@@H](O)C[C@@H](O)[C@H](O)CC[C@@H](O)C[C@@H](O)CC(=O)O[C@H]1C)C[C@H](O)[C@H]2C(=O)O [AMPHOTERICIN B] |  |  |  |  |  |  |  | MIC90 (Candida albicans [10]): 16 µg/mL (≈ 17.3 µM)
13 | CC(C)C1=CC2=CC[C@@H]3[C@](C)(CCC[C@@]3(C)C(=O)O)[C@H]2CC1 [ABIETIC ACID] | -53 | 0 | 44 to 45 | 31 (≈ 102 µM) | 4 (≈ 13.2 µM) | 16 (≈ 52.9 µM) | 8 (≈ 26.4 µM) | MIC90 (Staphylococcus aureus [4]): 63 µg/mL (≈ 208 µM); MIC90 (Staphylococcus aureus [7]): 31 µg/mL (≈ 102 µM); MIC90 [8]: 63 µg/mL (≈ 208 µM); MIC90 [9]: 31 µg/mL (≈ 102 µM)
14 | O=C(N[C@H](CO)[C@H](O)c1ccc([N+](=O)[O-])cc1)C(Cl)Cl [CHLORAMPHENICOL] |  |  |  | 8 (≈ 24.8 µM) | 4 (≈ 12.4 µM) | 4 (≈ 12.4 µM) | 8 (≈ 24.8 µM) | 
15 | CC1(C)S[C@@H]2[C@H](NC(=O)[C@H](N)c3ccccc3)C(=O)N2[C@H]1C(=O)O [AMPICILLIN] |  |  |  | 0.5 (≈ 1.43 µM) | 0.125 (≈ 0.358 µM) | 2 (≈ 5.72 µM) | 2 (≈ 5.72 µM) | 
16 | COC(=O)[C@@H](NC(=O)[C@]1(C)CCC[C@@]2(C)[C@H]1CC=C1C=C(C(C)C)CC[C@@H]12)C(C)C | 0 | 6 | 6 |  |  |  |  | 
17 | COC(=O)[C@@H](CO)NC(=O)[C@]1(C)CCC[C@]2(C)c3ccc(C(C)C)cc3CC[C@@H]12 |  |  |  | 31 (≈ 77.2 µM) | 16 (≈ 39.8 µM) | 8 (≈ 19.9 µM) | 8 (≈ 19.9 µM) | IC50 (Staphylococcus aureus [4]): 21 to 30 µg/mL (≈ 52.3 to 74.7 µM); MIC90 (Staphylococcus aureus [4]): 60 µg/mL (≈ 149 µM); MIC90 (Staphylococcus aureus [7]): 8 µg/mL (≈ 19.9 µM); Ratio (Staphylococcus aureus [11]): 7.5; MIC90 [8]: > 125 µg/mL; MIC90 [9]: 31 µg/mL (≈ 77.2 µM)
18 | OC(Cn1cncn1)(Cn1cncn1)c1ccc(F)cc1F |  |  |  |  |  |  |  | MIC90 [8]: 520 µg/mL (≈ 1700 µM); MIC90 [9]: 0.5 µg/mL (≈ 1.63 µM)
19 | CC[C@H]1OC(=O)[C@H](C)[C@@H](O[C@H]2C[C@@](C)(OC)[C@@H](O)[C@H](C)O2)[C@H](C)[C@@H](O[C@@H]2O[C@H](C)C[C@H](N(C)C)[C@H]2O)[C@](C)(OC)C[C@@H](C)C(=O)[C@H](C)[C@@H](O)[C@]1(C)O [CLARITHROMYCIN] |  |  |  |  | 0.5 (≈ 0.668 µM) | 0.25 (≈ 0.334 µM) |  | 
